Laboratory results from publication PMC8001783, “New Lignanamides with Antioxidant and Anti-Inflammatory Activities Screened Out and Identified from Warburgia ugandensis Combining Affinity Ultrafiltration LC-MS with SOD and XOD Enzymes” (Antioxidants, 2021).
Several values for one entry are separate records, joined by “and”; a condition that tells them apart may be missing. Equal entries are not always repeated. Marks after values point to notes of the source that are not given here.

Columns and labels:
COX-2 (human) = target: T1, COX-2 (human) (Homo sapiens, UniProt P35354); experiment: In vitro COX-2 inhibitory assay (COX-2 (human) inhibitor screening kit); format: biochemical; conditions: for IC50: fluorescence, ex 560 nm / em 590 nm, triplicate; for COX-2 inhibitory activity compared with the positive control indomethacin: in words, Figure 7
T1 construct: purchased Beyotime Biotechnology (Shanghai, China) S0168
T1 sequence (P35354 18-604): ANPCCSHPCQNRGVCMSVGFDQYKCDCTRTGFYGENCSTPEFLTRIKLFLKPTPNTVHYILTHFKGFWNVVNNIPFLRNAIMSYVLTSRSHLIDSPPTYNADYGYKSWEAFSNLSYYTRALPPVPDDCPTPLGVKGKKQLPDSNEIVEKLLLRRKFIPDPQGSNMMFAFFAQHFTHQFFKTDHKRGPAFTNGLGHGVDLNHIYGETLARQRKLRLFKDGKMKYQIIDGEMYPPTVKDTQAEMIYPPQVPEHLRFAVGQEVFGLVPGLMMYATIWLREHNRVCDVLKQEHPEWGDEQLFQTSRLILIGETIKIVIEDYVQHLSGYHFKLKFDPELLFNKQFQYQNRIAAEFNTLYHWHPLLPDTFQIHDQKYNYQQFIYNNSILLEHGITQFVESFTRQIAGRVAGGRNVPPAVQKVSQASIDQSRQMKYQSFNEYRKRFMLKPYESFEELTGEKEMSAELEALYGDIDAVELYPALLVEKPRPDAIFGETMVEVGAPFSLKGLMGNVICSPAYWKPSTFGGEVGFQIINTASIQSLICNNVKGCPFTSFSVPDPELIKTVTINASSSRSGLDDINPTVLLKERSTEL
Experimental: Firstly, samples were dissolved in DMSO, and prepared into a series of solutions with different concentrations. COX-2 cofactor working solution, COX-2 working solution, COX-2 probe, and COX-2 substrate were prepared according to manufacturer’s instructions, and then diluted 10 times with COX-2 assay buffer, respectively. Secondly, 150 µL Tris-HCl (pH = 7.8), 10 µL COX-2 cofactor working solution, 10 µL COX-2 working solution, and 10 µL sample solution were sequentially added in the 96-well black plates, mixed and incubated at 37 °C for 10 min. The COX-2 working solution of the blank control group was replaced with an equal volume of COX-2 assay buffer, and the sample was replaced with an equal volume of DMSO; the sample of the 100% enzyme activity control group was replaced with an equal volume of DMSO. Thirdly, 10 µL COX-2 probe was added into each well. Finally, 10 µL of COX-2 substrate was quickly added into each well, and incubated at 37 °C in the darkness for 5 min, and followed by the fluorescence measurement. The excitation and emission wavelengths were 560 nm and 590 nm, respectively. […] The experiments were performed in triplicate. The COX-2 inhibitory activity was expressed as IC50. The inhibition of COX-2 was calculated according to the following formula:COX-2 inhibitory activity (%) = (RFU100%Enzyme − RFUSample)/ (RFU100%Enzyme − RFUBlank) × 100,(3) where COX-2 inhibitory activity (%) was plotted against the concentration of samples to acquire the IC50. RFU100%Enzyme, relative fluorescence unit of 100% enzyme control group; RFUSample, relative fluorescence unit of sample; RFUBlank, relative fluorescence unit of blank group.

[1] = ABTS free radical scavenging assay; conditions: pure compounds; 30 min, 734 nm, n = 3
Experimental: The ABTS free radical scavenging activities of extracts and pure compounds from stem barks of W. ugandensis were tested according to previous studies with slight modifications. ABTS^+ solution was prepared by mixing equal volumes of potassium persulfate (4.9 mM in H2O) and ABTS (7.0 mM in H2O) and then incubated for 12 h in the darkness. The prepared ABTS^+ solution was diluted with MeOH to ensure an absorbance value about 0.700 ± 0.005 at 734 nm. Firstly, 10 µL of appropriately diluted solution of samples was added to the 190 µL ABTS^+ solution in 96-well plate. Secondly, the mixtures were gently shaken and put at room temperature for 30 min in the darkness. Finally, the absorbance was recorded at 734 nm with multifunctional microplate reader. Trolox was used as positive control, and MeOH was used as blank control. Samples and controls were tested in triplicate (n = 3). The antioxidant activities of ABTS were expressed as IC50 and TEAC values. The inhibition of the ABTS radicals was calculated according to the following formula:ABTS scavenging activity (%) = (1 − absorbance of sample/absorbance of blank control) × 100,(2) where ABTS scavenging activities (%) were plotted against the concentration of samples to acquire the IC50.

[2] = Ferric reducing antioxidant power (FRAP) assay; conditions: for FRAP value: 37 °C, 10 min, 593 nm, n = 3
Experimental: The ferric reducing antioxidant power assays on different extracts and pure compounds of stem barks from W. ugandensis were tested according to previous studies with slight modifications. Firstly, freshly prepared FRAP reagent (Fe^3+-TPTZ solution) was composed of FeCl3∙6H2O (20 mM in H2O), TPTZ (10 mM in 40 mM HCl), and acetate buffer (300 mM, pH = 3.6) at a ratio of 1:1:10 (v/v/v), then incubated at 37 °C after preparation, and used within 1–2 h. Secondly, 10 µL of appropriately diluted solution of samples was added to the 190 µL freshly prepared FRAP reagent in 96-well plate. Thirdly, the mixtures were gently shaken and put at 37 °C for 10 min. Finally, the absorbance was recorded at 593 nm with multifunctional microplate reader. Trolox was used as a positive control, and MeOH was used as blank control. Each of the samples and controls were tested in triplicate (n = 3). The antioxidant activities of FRAP were expressed as FRAP values and TEAC values. The FRAP values were calculated and expressed as millimoles of Fe^2+ equivalents per gram of sample (mmol Fe^2+/g) based on a calibration curve plotted using FeSO4∙7H2O as standard at a concentration ranging from 0.0185 to 1.5 mM.

| IC50 (COX-2 (human)) [µM] | IC50 [1] | COX-2 inhibitory activity compared with the positive control indomethacin (COX-2 (human)) | Molecule | total ferric-reducing antioxidant power (FRAP) [2] [mmol Fe^2+/g] | FRAP value [2] |
| --- | --- | --- | --- | --- | --- |
| 0.123 ± 0.004 | 5.38 µM and 5.4 µM |  | COc1cc(C2c3c(cc(O)c(O)c3OC)C=C(C(=O)NCCc3ccc(O)cc3)C2C(=O)NCCc2ccc(O)cc2)cc(O)c1O (stereo not shown) [compound 14] | 17.488 ± 1.625 | 17.488 ± 1.625 mmol Fe^2+/g and 17.5 ± 1.6 ^a mmol Fe^2+/g |
| 0.713 ± 0.322 | 69.8 ± 6.3 µM |  | COc1cc(C2c3c(cc(OC)c(O)c3O)C=C(C(=O)NCCc3ccc(O)cc3)C2C(=O)NCCc2ccc(O)cc2)cc(O)c1O (stereo not shown) [compound 13] |  | 1.3 ± 0.2 ^c mmol Fe^2+/g |
|  | 80 ± 10.3 µM | almost the same inhibitory activities | 1-(3,4-dihydroxy-5-methoxyphenyl)-1,2-dihydroxy-7,8-dihydroxy-N-[(3,4-dihydroxyphenyl)-ethyl]-N′-[(4-hydroxyphenyl)-ethyl]-6-methoxynaphthalene-2,3-dicarboxamide [compound 11] |  | 2.2 ± 0.1 ^c mmol Fe^2+/g |
|  | 463 ± 157 µM | almost the same inhibitory activities | O=C(/C=C/c1ccc(O)c(O)c1)NCCc1ccc(O)cc1 [compound 7, N-trans-caffeoyltyramine] |  | 1.9 ± 0.1 ^c mmol Fe^2+/g |
|  | 62.5 ± 4.2 µM | almost the same inhibitory activities | C[C@@H]1O[C@@H](O[C@@H]2[C@@H](O)[C@H](O)[C@@H](CO)O[C@H]2c2cc(-c3cc(=O)c4c(O)cc(O)cc4o3)cc(O)c2O)[C@H](O)[C@H](O)[C@H]1O [compound 1, 2-[3-[2-O-(6-deoxy-α-L-mannopyranosyl)-β-D-glucopyranosyl]-4,5-dihydroxyphenyl]-5,7-dihydroxy-4H-1-benzopyran-4-one] |  | 5.4 ± 0.7 ^b mmol Fe^2+/g |
